Among the data in PubChem BioAssay AID1888 (NMMLSC, 2009) are EC50 and Ki values, retold here.

The source made the active and inactive calls. No rule for the calls is given here. Some results are limits rather than exact numbers.

The term EC50 denotes the midpoint of the concentration-response curve. The term Ki denotes the dissociation constant of the complex between target and ligand, obtained from inhibition or displacement. High values mean a looser hold on the target, low ones a stronger hold on the target.

Regulator of G-protein signaling 16 (Homo sapiens), sequence (O15492 whole entry, looked up): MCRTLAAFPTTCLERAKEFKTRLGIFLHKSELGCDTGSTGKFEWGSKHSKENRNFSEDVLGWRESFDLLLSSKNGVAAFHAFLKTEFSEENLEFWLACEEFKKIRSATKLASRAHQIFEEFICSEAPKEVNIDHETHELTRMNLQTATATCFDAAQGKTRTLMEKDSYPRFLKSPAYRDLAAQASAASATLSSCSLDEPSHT

One test addresses Regulator of G-protein signaling 16 (Homo sapiens) (UniProt O15492). The experiment in a line: small molecules altering RGS16 binding to Galphao – biochemical, bead-based flow cytometry, multiplex, dose response (AID 1888).
Conditions: not given
Background: Flow cytometry measures light scatter and fluorescence of single cells or particles in a stream.
For the molecule `CCOC(=O)C1=C(C)NC(C)=C(C(=O)OCCNC(=O)c2cccnc2)C1c1cccc([N+](=O)[O-])c1` (configuration not stated), the EC50 is > 30 µM (inactive). Same read-out and setting: in the case of `CC(C)Sc1nc2ccc(N3C(=O)C4CCCCC4C3=O)cc2s1` (configuration not stated) it was > 30 µM (inactive). The same measure, in the same setting: in the case of `NS(=O)(=O)c1ccc(N/N=C/c2ccc(O)c(O)c2O)c([N+](=O)[O-])c1` it was 1.66 µM; in that of `CCOC(=O)N=Nc1c(O)n(C)c2ccccc12`, > 30 µM (inactive). In the case of `CCOC(=O)/C(C(=O)Nc1ccccc1Cl)=C1/NC(C)(C)Cc2ccccc21`, the EC50 result is “inactive”. Still for that read-out and setting: in the case of `O=C1CCCC2=C1C(c1cccs1)n1ncnc1N2` (configuration not stated) it was > 30 µM (inactive). On the same count and under the same terms, in the case of `COc1ccc(Br)cc1/C=N/Nc1cccc(C(=O)O)c1` it was > 30 µM (inactive); in that of `O=c1[nH]c(=S)n(Cc2ccco2)c(O)c1C=NCc1cccs1`, > 30 µM (inactive); in that of `CN(C)[C@@H]1C(=O)C(C(=O)NCN2CCCC2)=C(O)[C@@]2(O)C(=O)C3=C(O)c4c(O)cccc4[C@@](C)(O)C3CC12` (some centres not stated), 7.31 µM.

The same test, now with this note: measured here: Ki for RGS16-Galphao binding.
As to `CCOC(=O)C1CCCN(C(=O)Cn2sc3nc(C)cc(C)c3c2=O)C1` (configuration not stated), the Ki came to 1.53 µM. On the same count and under the same terms, to `CCC(=O)NC(c1ccc(C)cc1)c1cc([N+](=O)[O-])c2cccnc2c1O` (configuration not stated) belongs 9.46 µM; to `CCN(CC)S(=O)(=O)c1cccc(C(=O)N/N=C/c2ccc(O)c(O)c2O)c1`, 4.14 µM. In turn, `CC(NC(=O)c1sc2cc([N+](=O)[O-])ccc2c1Cl)C(C)(C)C` (configuration not stated) registered a Ki of 2 µM. The same measure, in the same setting: in the case of `O=C(Cc1csc(N2CCOCC2)n1)N/N=C/c1ccc(O)c(O)c1O` it was 9.08 µM. The same measure, in the same setting: in the case of `COc1ccc(OC)c(CCNC(=O)Cn2sc3nc(C)cc(C)c3c2=O)c1` it was 1.43 µM; in that of `COc1ccc(C2=CC(=O)C=CC2=O)cc1`, 3 µM. The molecule `Cc1ccccc1-n1sc2cc(F)ccc2c1=O` had a Ki of 13 µM. The same measure, in the same setting: to `CN=c1scc(C)n1/N=C/c1ccc(O)c(O)c1O` belongs 7.14 µM; to `Cc1cc(Cl)ccc1N=c1ssnc1Cl`, 7.19 µM. Still for that read-out and setting: to `CCOC(=O)c1sc(NC(=O)CSc2nnc(Cc3ccccc3)o2)c(C#N)c1C` belongs 10.9 µM; to `Cc1cc(C)c2c(=O)n(CC(=O)Nc3cccc(F)c3)sc2n1`, 1.39 µM; to `CCOc1ccccc1-c1c2cc(O)c(=O)cc-2oc2cc(O)c(O)cc12`, 11.3 µM. The same measure, in the same setting: in the case of `O=C1C(Cl)=C(N2CCCCC2)C(=O)C(Cl)=C1c1cnc(N2CCCCC2)s1` it was 1.34 µM; in that of `O=C(OCC1O[C@@H](OC(=O)c2cc(O)c(O)c(O)c2)[C@@H](OC(=O)c2cc(O)c(O)c(O)c2)[C@@H](OC(=O)c2cc(O)c(O)c(O)c2)[C@@H]1OC(=O)c1cc(O)c(O)c(O)c1)c1cc(O)c(O)c(O)c1` (some centres not stated), 4.68 µM. In turn, `CCNc1ccc2noc3c2c1C(=O)c1ccccc1-3` returned a Ki of 23.7 µM. The same measure, in the same setting: to `CN1CCN(C2=C(Cl)C(=O)C(c3cnc(N4CCCCC4)s3)=C(Cl)C2=O)CC1` belongs 0.15 µM; to `Cc1ccc(NC(=O)Cn2sc3nc(C)cc(C)c3c2=O)c(Cl)c1`, 0.71 µM; to `CCN1/C(=C/C=C/C=C/c2sc3ccccc3[n+]2CC)Sc2ccccc21`, 5.41 µM. Consider `Cc1[nH]n(-c2ccccc2)c(=S)c1C=Nc1cccc([N+](=O)[O-])c1`, for which the Ki was determined as 1.29 µM. This Ki is about 4.2-fold lower than that of the molecule before. Turning to `CN(C)S(=O)(=O)c1cccc(-n2sc3ccccc3c2=O)c1`, the Ki turned out to be 1.24 µM.

As to `O=C1OCC2OC(O)C(O)C(O)C2OC(=O)c2cc(O)c(O)c(O)c2-c2c(O)c(O)c3oc(=O)c4c(c(O)c(O)c5oc(=O)c2c3c54)-c2c1cc(O)c(O)c2O` (configuration not stated), the Ki is 13.4 µM. On to `Cc1ccccc1-n1c(-c2ccncc2)n[nH]c1=S`, for which the Ki turned out to be 6.29 µM. The same measure, in the same setting: to `Cc1cc(C)c2c(=O)n(CC(=O)Nc3ccc(Cl)cc3)sc2n1` belongs 1.42 µM. Same read-out and setting: in the case of `NS(=O)(=O)c1ccc(N/N=C/c2ccc(O)c(O)c2O)c([N+](=O)[O-])c1` it was 1.35 µM; in that of `CC(=O)N1CC[n+]2c(-c3ccc([N+](=O)[O-])cc3)csc21`, 11 µM. Same read-out and setting: to `COC(=O)CCC(=O)Nc1sc(C)c(C)c1C(N)=O` belongs 5.32 µM; to `O=[N+]([O-])c1ccc(Sc2cccc[n+]2[O-])c2nonc12`, 1.07 µM; to `CC1(C)OC(=O)C(=Cc2ccc(-c3ccc(S(N)(=O)=O)cc3)o2)C(=O)O1`, 9.64 µM.

Consider `O=C(NCCCN1CCOCC1)c1sc2cc([N+](=O)[O-])ccc2c1Cl`, for which the Ki came to 0.77 µM. For the molecule `O=c1c2ccccc2sn1-c1ccc(S(=O)(=O)N2CCCC2)cc1`, the Ki worked out at 1.94 µM.

With `CN(C)c1ncc(C2=C(Cl)C(=O)C(N3CCCC3)=C(Cl)C2=O)s1`, the Ki stood at 4.05 µM. For `O=c1c2ccccc2sn1-c1cc(S(=O)(=O)N2CCOCC2)ccc1N1CCOCC1`, the Ki came out at 0.56 µM. Molecule `CCCNC(=O)Cn1sc2nc(C)cc(C)c2c1=O` registered a Ki of 1.42 µM. Still for that read-out and setting: to `Cc1cccc(N2CCN(C(=O)Cn3sc4nc(C)cc(C)c4c3=O)CC2C)c1` (configuration not stated) belongs 1.05 µM. Same read-out and setting: to `CC(=O)N(O)CCCCCNC(=O)CCC(=O)N(O)CCCCCNC(=O)CCC(=O)N(O)CCCCCN` belongs 1.5 µM.

Turning to `O=c1c2ccccc2sn1-c1ccccc1`, the Ki came to 1.37 µM. `O=C(O[C@@H]1OC2COC(=O)c3cc(O)c(O)c(O)c3-c3c(cc(O)c(O)c3O)C(=O)O[C@@H]([C@H]1O)[C@@H]2O)c1cc(O)c(O)c(O)c1` displayed an inhibition constant Ki of 5.42 µM. Still for that read-out and setting: in the case of `NS(=O)(=O)c1ccc(CNC(=O)/C=C/c2ccco2)cc1` it was 6.22 µM. The same measure, in the same setting: in the case of `CN(C)[C@@H]1C(=O)C(C(=O)NCN2CCCC2)=C(O)[C@@]2(O)C(=O)C3=C(O)c4c(O)cccc4[C@@](C)(O)C3CC12` (some centres not stated) it was 5.93 µM; in that of `CCC(=O)NC1=C(Cl)C(=O)C(NC(=O)CC)=C(Cl)C1=O`, 0.68 µM; in that of `C/C(=N/NC(=O)c1cc(O)c(O)c(O)c1)c1ccc([N+](=O)[O-])cc1`, 15.8 µM. The same measure, in the same setting: in the case of `O=C(COc1ccccc1C(=O)N/N=C\c1ccc(O)c(O)c1)N/N=C/c1ccc(O)c(O)c1` it was 3.24 µM; in that of `Cc1[nH]n(-c2ccccc2)c(=S)c1C=NCCCN=Cc1c(C)[nH]n(-c2ccccc2)c1=S`, 7.13 µM; in that of `CC(=O)OCCCNc1cc(Sc2nc3ccccc3s2)c2nonc2c1[N+](=O)[O-]`, 8.45 µM. `Cc1ccc(-n2sc3ccccc3c2=O)cc1S(=O)(=O)N1CCCCC1` displayed a Ki of 1.62 µM. Same read-out and setting: to `Nc1c(C(=O)NCC2CCCO2)sc2nc3c(c(-c4ccco4)c12)CC/C3=C\c1ccco1` (configuration not stated) belongs 2.21 µM; to `COCCCNC(=O)c1ccc2c3c(onc13)-c1ccccc1C2=O`, 4.61 µM.

As for `O=C1CCC(=O)N(O)CCCCCNC(=O)CCC(=O)N(O)CCCCCNC(=O)CCC(=O)N(O)CCCCCN1`, the Ki came out at 1.82 µM. The same measure, in the same setting: in the case of `CCN=c1scc(C)n1/N=C/c1ccc(O)c(O)c1O` it was 15.1 µM; in that of `O=C(O)C[C@@H]1C(=O)O[C@@H]2C(COC(=O)c3cc(O)c(O)c(O)c3)O[C@@H](OC(=O)c3cc(O)c(O)c(O)c3)[C@@H](OC(=O)c3cc(O)c(O)c4c3[C@H]1[C@H](O)C(=O)O4)[C@H]2OC(=O)c1cc(O)c(O)c(O)c1` (some centres not stated), 1.36 µM; in that of `CCN1/C(=C/C(C)=C/c2sc3ccccc3[n+]2CC)Sc2ccccc21`, 7.85 µM. The same measure, in the same setting: in the case of `O=c1c2ccccc2sn1-c1cc(S(=O)(=O)N2CCOCC2)ccc1N1CCCC1` it was 1.83 µM.
